The values below come from patent US11116752B2, “Pharmaceutical composition comprising bicyclo-substituted pyrazolon azo derivative or salt thereof and preparation method thereof” (Jiangsu Hengrui Medicine Co., Ltd., priority 2016, dated 2021).

This data set is described as follows: Stability test of Compound B and its mixtures with fillers (1:10). In kind it is physicochemical. The protocol: The Compound B was mixed respectively with cellulose-lactose (cellactose 80), a simple mixture of cellulose and lactose (75%:25%), spray-dried lactose (Flowlac 100), microcrystalline cellulose PH302, or microcrystalline cellulose PH102 in a ratio of 1:10. The above mixtures and Compound B were placed respectively under conditions of 40° C./RH75%/open, 40° C./RH75%/closed, or 60° C./closed for 2 weeks and 4 weeks.

With `CC1=NN(c2ccc3c(c2)CCCC3)C(=O)/C1=N\Nc1cccc(-c2ccc(C(=O)O)o2)c1O` [Compound B, (Z)-5-(2-hydroxy-3-(2-(3-methyl-5-oxo-1-(5,6,7,8-tetrahydronaphthalen-2-yl)-1H-pyrazol-4(5H)-ylidene)hydrazino)phenyl)furan-2-carboxylic acid], the Appearance entry (40° C./RH75%/closed, 2 Weeks) is on record as “Dark red powder”; the Appearance entry (40° C./RH75%/closed, 4 Weeks) is on record as “Dark red powder”; the Appearance result (40° C./RH75%/open, 2 Weeks) is listed as “Dark red mass”; the Appearance result (40° C./RH75%/open, 4 Weeks) is listed as “Dark red mass”; the Appearance entry (60° C./closed, 2 Weeks) is “Dark red mass”; the Appearance result (60° C./closed, 4 Weeks) is given as “Dark red mass”. Also, where the note is “Initial point, 0 Day”, the Appearance result is “Dark red powder”. Also, the “Related substances (%)” value was 1.08% (40° C./RH75%/closed, 2 Weeks); 1.18% (40° C./RH75%/closed, 4 Weeks); 1.32% (40° C./RH75%/open, 2 Weeks); 1.93% (40° C./RH75%/open, 4 Weeks); 3.05% (60° C./closed, 2 Weeks); 4.84% (60° C./closed, 4 Weeks). Besides, the “Related substances (%)” value (Initial point, 0 Day) came to 0.90%.
